Measured values as given in the NIST ThermoML archive (doi:10.1016/j.jct.2009.05.009).
± gives the expanded uncertainty stated by the source.

Assay: xn = mol fraction of the nth substance listed
Details: 101.3 kPa, Liquid, Vibrating tube method

CCOS(=O)(=O)[O-].CCn1cc[n+](C)c1 [1-ethyl-3-methylimidazolium ethyl sulfate] + O
mass density [kg/m3]
Details | 293.15 K | 298.15 K | 303.15 K | 308.15 K | 313.15 K | 318.15 K
x2 = 0 | 1242.4 ± 2.4 | 1239.4 ± 2.4 | 1236.3 ± 2.4 | 1233.3 ± 2.3 | 1230.2 ± 2.3 | 1227.2 ± 2.3
x2 = 0.0514 | 1241.4 ± 2.3 | 1238.3 ± 2.3 | 1235.2 ± 2.3 | 1232.2 ± 2.3 | 1229.1 ± 2.3 | 1226.1 ± 2.3
x2 = 0.13 | 1239.8 ± 2.2 | 1236.8 ± 2.2 | 1233.6 ± 2.2 | 1230.6 ± 2.2 | 1227.4 ± 2.2 | 1224.4 ± 2.2
x2 = 0.1783 | 1238.8 ± 2.2 | 1235.7 ± 2.2 | 1232.6 ± 2.2 | 1229.5 ± 2.2 | 1226.3 ± 2.2 | 1223.3 ± 2.2
x2 = 0.2168 | 1237.8 ± 2.2 | 1234.7 ± 2.2 | 1231.5 ± 2.2 | 1228.5 ± 2.2 | 1225.4 ± 2.2 | 1222.3 ± 2.2
x2 = 0.2642 | 1236.4 ± 2.2 | 1233.3 ± 2.2 | 1230.2 ± 2.2 | 1227.1 ± 2.2 | 1223.9 ± 2.2 | 1220.8 ± 2.2
x2 = 0.3054 | 1235 ± 2.2 | 1232 ± 2.1 | 1228.8 ± 2.1 | 1225.8 ± 2.1 | 1222.6 ± 2.1 | 1219.5 ± 2.1
x2 = 0.3568 | 1233 ± 2.1 | 1230 ± 2.1 | 1226.9 ± 2.1 | 1223.9 ± 2.1 | 1220.7 ± 2.1 | 1217.6 ± 2.1
x2 = 0.4008 | 1231.2 ± 2.1 | 1228 ± 2.1 | 1225 ± 2.1 | 1221.9 ± 2.1 | 1218.7 ± 2.1 | 1215.6 ± 2.1
x2 = 0.4613 | 1228.1 ± 2.1 | 1225.2 ± 2.1 | 1222 ± 2.1 | 1218.9 ± 2.1 | 1215.6 ± 2.1 | –
x2 = 0.5002 | 1225.9 ± 2.1 | 1222.9 ± 2.2 | 1219.7 ± 2.2 | 1216.6 ± 2.2 | 1213.4 ± 2.2 | –
x2 = 0.5584 | 1221.8 ± 2.2 | 1218.8 ± 2.2 | 1215.6 ± 2.2 | 1212.4 ± 2.2 | 1209.2 ± 2.2 | –
x2 = 0.6124 | 1217.1 ± 2.3 | 1213.9 ± 2.3 | 1210.8 ± 2.3 | 1207.6 ± 2.3 | 1204.4 ± 2.3 | –
x2 = 0.6698 | 1210.7 ± 2.4 | 1207.4 ± 2.4 | 1204.1 ± 2.4 | 1200.9 ± 2.4 | 1197.6 ± 2.4 | –
x2 = 0.7125 | 1204.3 ± 2.7 | 1200.8 ± 2.7 | 1197.6 ± 2.7 | 1194.3 ± 2.7 | 1190.9 ± 2.7 | –
x2 = 0.7635 | 1194.2 ± 3 | 1190.4 ± 3 | 1187.1 ± 3 | 1184 ± 3.1 | 1180.6 ± 3.1 | –
x2 = 0.8006 | 1184.2 ± 3.9 | 1180.5 ± 3.9 | 1177.2 ± 3.9 | 1173.6 ± 3.9 | 1170.3 ± 3.9 | –
x2 = 0.8497 | 1165.4 ± 5.1 | 1162.1 ± 5.1 | 1158.8 ± 5 | 1155.5 ± 5.1 | 1152.3 ± 5 | –
x2 = 0.8963 | 1139.3 ± 12 | 1135.6 ± 12 | 1132.8 ± 12 | 1129 ± 12 | 1126 ± 12 | –
